Source: patent publication US20230248653A1, “ELECTROSPRAYED AND ELECTROSPUN CANNABINOID COMPOSITIONS AND PROCESS TO PRODUCE” (priority 2019, published 2023)

Test: Solubility of CBD in water, HFIP and acetic acid-water solutions
Assay type: physicochemical
Source text: Fast dissolving particles were produced using edible gelatin nanoscale particles created from acetic acid-water based solutions. A solution was created, and the electrospray process was repeated to see if reproducible results were obtainable.
In order to create CBD particles in a gelatin-based solution, the solubility of CBD in different acetic acid-water based solutions was explored.

C=C(C)[C@@H]1CCC(C)=C[C@H]1c1c(O)cc(CCCCC)cc1O [CBD, Cannabidiol]
solubility in acetic acid-water solution (30% v/v AA(aq.)): Emulsions were formed
solubility in acetic acid-water solution (40% v/v AA(aq.)): Emulsions were formed
solubility in acetic acid-water solution (50% v/v AA(aq.) and higher concentrations): clear, homogeneous and well mixed soluble CBD solution
solubility in HFIP (HFIP): soluble
solubility in water (water): not able to dissolve in water
